Assays:
[1] = target: T1, S-methyl-5'-thioadenosine phosphorylase (Homo sapiens, UniProt Q13126); test: Inhibition of human MTAP as initial dissociation constant
T1 sequence (Q13126 whole entry): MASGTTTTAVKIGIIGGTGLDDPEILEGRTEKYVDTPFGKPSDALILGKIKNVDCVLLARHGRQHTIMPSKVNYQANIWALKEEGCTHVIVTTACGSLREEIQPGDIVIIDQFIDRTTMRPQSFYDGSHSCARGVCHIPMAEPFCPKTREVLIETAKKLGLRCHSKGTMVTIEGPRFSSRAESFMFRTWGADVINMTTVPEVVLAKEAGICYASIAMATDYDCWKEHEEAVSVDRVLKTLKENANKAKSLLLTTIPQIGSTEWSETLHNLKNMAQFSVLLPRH

[2] = target: T1, S-methyl-5'-thioadenosine phosphorylase; test: Inhibition of human MTAP as equilibrium dissociation constant
[3] = target: T1, S-methyl-5'-thioadenosine phosphorylase; test: Inhibition of human MTAP as equilibrium dissociation constant; ND=no slow-onset phase
[4] = substrate: CSC[C@H]1O[C@@H](n2cnc3c(N)ncnc32)[C@H](O)[C@@H]1O; test: Km for human MTAP

Molecule	Ki [1] [nM]	Ki [2] [nM]	Ki [3]	Km [4] [µM]
CCCC1CN(Cc2c[nH]c3c2N=CNC3N)CC1O (stereo not drawn)	22	3		
NC1N=CNc2c(CN3CC(O)C(COCc4ccccc4)C3)c[nH]c21 (stereo not drawn)	85	42		
CSCC1CN(Cc2c[nH]c3c(N)ncnc23)CC1O (stereo not drawn)	1.7	0.09		
NC1NC=Nc2c(CN3CC(O)C(CSc4ccc(F)cc4)C3)c[nH]c21 (stereo not drawn)	0.81	0.16		
NC1NC=Nc2c(CN3CC(O)C(CSc4ccccc4)C3)c[nH]c21 (stereo not drawn)	1.5	0.17		
COCC1CN(Cc2c[nH]c3c2N=CNC3N)CC1O (stereo not drawn)	14	8		
CCSCC1CN(Cc2c[nH]c3c2N=CNC3N)CC1O (stereo not drawn)	0.65	0.034		
CC(C)SCC1CN(Cc2c[nH]c3c2NC=NC3N)CC1O (stereo not drawn)	0.9	0.26		
NC1N=CNc2c(CN3CC(O)C(CSc4ccc(Cl)cc4)C3)c[nH]c21 (stereo not drawn)	0.36	0.01		
CCCCSCC1CN(Cc2c[nH]c3c2N=CNC3N)CC1O (stereo not drawn)	0.28	0.11		
Nc1[nH]cnc2c(CN3CC(O)C(CSCc4ccccc4)C3)cnc1-2 (stereo not drawn)	1.4	0.7		
NC1NC=Nc2c(CN3CC(O)C(CSC4CCCCC4)C3)c[nH]c21 (stereo not drawn)	0.76	0.37		
CCCSCC1CN(Cc2c[nH]c3c2NC=NC3N)CC1O (stereo not drawn)	1.3	0.12		
NC1NC=Nc2c(CN3CC(O)C(CSc4cccc(Cl)c4)C3)c[nH]c21 (stereo not drawn)	2	0.27		
NC1N=CNc2c(CN3CC(O)C(CSc4ccncc4)C3)c[nH]c21 (stereo not drawn)	2	0.16		
Nc1ncnc2c(CN3CC(O)C(CSCc4ccccc4)C3)n[nH]c12 (stereo not drawn)	55		No slow-onset phase observed	
S-methyl-5'-thioadenosine phosphorylase (Homo sapiens), Q13126 (protein) MASGTTTTAVKIGIIGGTGLDDPEILEGRTEKYVDTPFGKPSDALILGKIKNVDCVLLARHGRQHTIMPSKVNYQANIWALKEEGCTHVIVTTACGSLREEIQPGDIVIIDQFIDRTTMRPQSFYDGSHSCARGVCHIPMAEPFCPKTREVLIETAKKLGLRCHSKGTMVTIEGPRFSSRAESFMFRTWGADVINMTTVPEVVLAKEAGICYASIAMATDYDCWKEHEEAVSVDRVLKTLKENANKAKSLLLTTIPQIGSTEWSETLHNLKNMAQFSVLLPRH				5

— ChEMBL document CHEMBL1140320, “Second generation transition state analogue inhibitors of human 5'-methylthioadenosine phosphorylase” (J Med Chem, 2005)
